Results taken from ChEMBL document CHEMBL4177659, “Two new dammarane-type triterpene saponins from Korean red ginseng and their anti-inflammatory effects” (Bioorg Med Chem Lett, 2017).
The source made the active and inactive calls.

Tests used:
Type in all cases: functional, cell-based
RAW264.7 [1] = experiment: Antiinflammatory activity against mouse RAW264.7 cells assessed as inhibition of LPS induced cox-2 expression at 20 uM preincubated for 2 hrs followed by LPS challenge measured after 24 hrs by Western blot method
RAW264.7 [2] = experiment: Antiinflammatory activity against mouse RAW264.7 cells assessed as inhibition of LPS induced iNOS expression at 20 uM preincubated for 2 hrs followed by LPS challenge measured after 24 hrs by Western blot method
RAW264.7 [3] = experiment: Antiinflammatory activity against mouse RAW264.7 cells assessed as inhibition of LPS induced IL-6 release 10 uM preincubated for 2 hrs followed by LPS challenge measured after 24 hrs by sandwich ELISA
RAW264.7 [4] = experiment: Antiinflammatory activity against mouse RAW264.7 cells assessed as inhibition of LPS induced TNFalpha release preincubated for 2 hrs followed by LPS challenge measured after 24 hrs by sandwich ELISA
RAW264.7 [5] = experiment: Antiinflammatory activity against mouse RAW264.7 cells assessed as inhibition of LPS induced cox-2 expression at 10 uM preincubated for 2 hrs followed by LPS challenge measured after 24 hrs by Western blot method
RAW264.7 [6] = experiment: Antiinflammatory activity against mouse RAW264.7 cells assessed as inhibition of LPS induced iNOS expression at 10 uM preincubated for 2 hrs followed by LPS challenge measured after 24 hrs by Western blot method

Measured: Activity

Cc1ccc(-c2cc(C(F)(F)F)nn2-c2ccc(S(N)(=O)=O)cc2)cc1
active: RAW264.7 [1] | RAW264.7 [2]

CC(C)=CCC[C@@](C)(O)[C@H]1CC[C@]2(C)[C@@H]1[C@H](O)C[C@@H]1[C@@]3(C)CCC(=O)C(C)(C)[C@@H]3[C@@H](O[C@@H]3O[C@H](CO)[C@@H](O)[C@H](O)[C@H]3O)C[C@]12C
active: RAW264.7 [3] | RAW264.7 [4] Dose-dependent effect | RAW264.7 [5] | RAW264.7 [6]
